Reference: the NIST ThermoML archive (doi:10.1021/acs.jced.6b00895)
± gives the expanded uncertainty stated by the source.

Settings: Liquid, Ebulliometric method (Recirculating still)

COCC(C)O (centres undefined) [1-methoxy-2-propanol]
vapor or sublimation pressure (393.15 K): 101.3 ± 1.5 kPa

COC(C)CO (centres undefined) [2-methoxy-1-propanol]
vapor or sublimation pressure (402.65 K): 101.3 ± 1.5 kPa

COCCO [2-methoxyethan-1-ol]
vapor or sublimation pressure (397.67 K): 101.3 ± 1.5 kPa

O [water]
vapor or sublimation pressure (373.19 K): 101.3 ± 1.5 kPa
